Measured values: patent EP4772506A1, “COMPOUND FOR REGULATING ACTIVITY OF MICRORNA-124” (Jiangsu Chia Tai Fenghai Pharmaceutical Co., Ltd., priority 2023, dated 2025)
Marks after values point to notes of the source that are not given here.

Key:
miR124 = assay: Effect of the compound on miR124 upregulation in PBMCs (qPCR, U6 as internal reference); assay type: cell-based, human; conditions: miR-124 expression, 5 µM, 6 days, batches normalized
Protocol: The effect of test compounds on miR124 expression levels was evaluated in human peripheral blood mononuclear cells (PBMCs). […] Test compounds (final concentration: 5 µM) were added for treatment at 37°C, 5% CO2 for 6 days, with medium replacement on day 3. The control group was treated with an equal volume of DMSO under the same conditions.
RNA Extraction: On day 6, cells were collected in a 15 mL centrifuge tube and centrifuged at 400g for 10 min, followed by supernatant removal. […] The upper RNA layer was aspirated into a clean 1.5 mL centrifuge tube (RNase-free), an equal volume of isopropanol was added, and left at room temperature for 10 min to precipitate RNA. Centrifugation at 4°C and 12000g for 10 min yielded a small white pellet at the tube bottom.
Fluorescent quantitative PCR reaction: miRNA quantification was performed using SYBR Green I intercalating fluorescence method, with simultaneous detection of the housekeeping gene U6 transcript level as internal reference.

[1] = tested on: dextran sulfate sodium (DSS)-induced ulcerative colitis; assay: Preventive and therapeutic effects on DSS-induced ulcerative colitis (UC) in mice; assay type: in vivo, C57BL/6 mice; conditions: for relative body weight (% of initial): mean ± SEM; for Relative colon length (%): of the control group
Protocol: The preventive and therapeutic effects of the positive drug ABX464 and Compound 23 of the present disclosure on dextran sulfate sodium (DSS)-induced ulcerative colitis were evaluated using a DSS-induced ulcerative colitis (UC) model.
Female C57BL/6 mice (20-22 g) were randomly divided into 7 groups according to body weight after adaptive feeding, as shown in Table 4. On day 1, the mice were switched to 3% DSS feeding. After 10 days of DSS feeding, they were switched back to normal drinking water until day 13. From day 1 to day 13, the mice were continuously administered the corresponding solvents and drugs by gavage. Body weight changes were recorded daily from day 1 to day 13. On day 13, after recording body weight, the mice were dissected to measure colon length. The preventive and therapeutic effects of the test drug on ulcerative colitis in mice were evaluated based on relative body weight change rate and colon length. Table 4. Experimental animal grouping and model induction period

[2] = Pharmacokinetic study in rats (plasma, LC-MS/MS); conditions: rat, in vivo, po, 20 mg/kg
Protocol: • (1) SD male rats were used as test animals.
The administration solvent was a physiological saline solution containing 10% DMSO + 10% polyoxyl castor oil (Cremophor EL). Fasting was maintained for approximately 12 hours prior to administration, and free feeding was allowed 4 hours post-administration, with no water restriction. […] After gently inverting the tube to fully mix the anticoagulant EDTA-K2 with the blood, the tube was immediately placed on wet ice. The plasma was separated by centrifugation immediately after blood collection under the following centrifugation conditions: 4°C, 3500 rpm, and 5 min. The upper plasma layer was transferred and stored at -80°C until sample analysis. […] The pharmacokinetic parameters were calculated from the sample analysis results using WinNonlin software.

[3] = 6.25-50 mg/kg qd by gavage, overall conclusion
[4] = day 13, 6.25 mg/kg qd by gavage
[5] = day 13, 12.5 mg/kg qd by gavage

FC(F)(F)Oc1ccc(Nc2ncc3ccc(Cl)cc3n2)cc1 [Compound 23]
Average fold change compared to DMSO treatment, Average value (miR124): 6.54
effect on colon shortening in DSS-induced ulcerative colitis mice [1, 3]: good therapeutic effect on colon shortening
effect on weight loss in DSS-induced ulcerative colitis mice [1, 3]: favorable restorative effect on weight loss
weight loss ([1]; by day 9, 50 mg/kg qd by gavage): 3.09%
weight loss ([1]; by day 10, 6.25 mg/kg qd by gavage): 7.52%
weight loss ([1]; by day 10, 12.5 mg/kg qd by gavage): 8.99%
weight loss ([1]; by day 10, 25 mg/kg qd by gavage): 7.96%
weight loss ([1]; by day 10, 50 mg/kg qd by gavage): 3.8%
relative body weight (% of initial) ([1]; day 1, 6.25 mg/kg qd by gavage): 100±0.00%
relative body weight (% of initial) ([1]; day 1, 12.5 mg/kg qd by gavage): 100±0.00%
relative body weight (% of initial) ([1]; day 1, 25 mg/kg qd by gavage): 100±0.00%
relative body weight (% of initial) ([1]; day 1, 50 mg/kg qd by gavage): 100±0.00%
relative body weight (% of initial) ([1]; day 2, 6.25 mg/kg qd by gavage): 101.5± 0.43%
relative body weight (% of initial) ([1]; day 2, 12.5 mg/kg qd by gavage): 99.9±0.63%
relative body weight (% of initial) ([1]; day 2, 25 mg/kg qd by gavage): 100.5± 0.37%
relative body weight (% of initial) ([1]; day 2, 50 mg/kg qd by gavage): 99.1±0.65%
relative body weight (% of initial) ([1]; day 3, 6.25 mg/kg qd by gavage): 102.4± 0.78%
relative body weight (% of initial) ([1]; day 3, 12.5 mg/kg qd by gavage): 100.8± 0.67%
relative body weight (% of initial) ([1]; day 3, 25 mg/kg qd by gavage): 101.1± 0.59%
relative body weight (% of initial) ([1]; day 3, 50 mg/kg qd by gavage): 100.2±0.78%
relative body weight (% of initial) ([1]; day 4, 6.25 mg/kg qd by gavage): 101.9± 1.02%
relative body weight (% of initial) ([1]; day 4, 12.5 mg/kg qd by gavage): 99.9 ± 0.87%
relative body weight (% of initial) ([1]; day 4, 25 mg/kg qd by gavage): 100.8± 0.44%
relative body weight (% of initial) ([1]; day 4, 50 mg/kg qd by gavage): 100.0±0.74%
relative body weight (% of initial) ([1]; day 5, 6.25 mg/kg qd by gavage): 101.7± 0.98%
relative body weight (% of initial) ([1]; day 5, 12.5 mg/kg qd by gavage): 100.5± 0.88%
relative body weight (% of initial) ([1]; day 5, 25 mg/kg qd by gavage): 99.8±0.61%
relative body weight (% of initial) ([1]; day 5, 50 mg/kg qd by gavage): 100.7±1.01%
relative body weight (% of initial) ([1]; day 6, 6.25 mg/kg qd by gavage): 100±0.97%
relative body weight (% of initial) ([1]; day 6, 12.5 mg/kg qd by gavage): 97.4±0.87%
relative body weight (% of initial) ([1]; day 6, 25 mg/kg qd by gavage): 97.5±0.81%
relative body weight (% of initial) ([1]; day 6, 50 mg/kg qd by gavage): 98.0±1.15%
relative body weight (% of initial) ([1]; day 7, 6.25 mg/kg qd by gavage): 96.4±1.18%
relative body weight (% of initial) ([1]; day 7, 12.5 mg/kg qd by gavage): 95.0±1.12%
relative body weight (% of initial) ([1]; day 7, 25 mg/kg qd by gavage): 95.3±0.98%
relative body weight (% of initial) ([1]; day 7, 50 mg/kg qd by gavage): 96.9±1.03%
relative body weight (% of initial) ([1]; day 8, 6.25 mg/kg qd by gavage): 94.4±1.50%
relative body weight (% of initial) ([1]; day 8, 12.5 mg/kg qd by gavage): 92.7±1.28%
relative body weight (% of initial) ([1]; day 8, 25 mg/kg qd by gavage): 93.7±1.43%
relative body weight (% of initial) ([1]; day 8, 50 mg/kg qd by gavage): 96.7±1.20%
relative body weight (% of initial) ([1]; day 9, 6.25 mg/kg qd by gavage): 93.4±1.75%
relative body weight (% of initial) ([1]; day 9, 12.5 mg/kg qd by gavage): 92.7±1.55%
relative body weight (% of initial) ([1]; day 9, 25 mg/kg qd by gavage): 92.6±2.25%
relative body weight (% of initial) ([1]; day 9, 50 mg/kg qd by gavage): 96.9± 1.41 %
relative body weight (% of initial) ([1]; day 10, 6.25 mg/kg qd by gavage): 92.5± 2.02 %
relative body weight (% of initial) ([1]; day 10, 12.5 mg/kg qd by gavage): 91.0± 1.78 %
relative body weight (% of initial) ([1]; day 10, 25 mg/kg qd by gavage): 92.0± 2.38 %
relative body weight (% of initial) ([1]; day 10, 50 mg/kg qd by gavage): 96.2± 1.38 %
relative body weight (% of initial) ([1]; day 11, 6.25 mg/kg qd by gavage): 92.4±2.22%
relative body weight (% of initial) ([1]; day 11, 12.5 mg/kg qd by gavage): 91.9±1.91%
relative body weight (% of initial) ([1]; day 11, 25 mg/kg qd by gavage): 94.6± 1.73 %
relative body weight (% of initial) ([1]; day 11, 50 mg/kg qd by gavage): 96.6± 1.45 %
relative body weight (% of initial) ([1]; day 12, 6.25 mg/kg qd by gavage): 92.7±2.19%
relative body weight (% of initial) ([1]; day 12, 12.5 mg/kg qd by gavage): 92.1±1.17%
relative body weight (% of initial) ([1]; day 12, 25 mg/kg qd by gavage): 93.5±1.57%
relative body weight (% of initial) ([1]; day 12, 50 mg/kg qd by gavage): 96.5± 1.62 %
Colon length Mean [1, 4]: 7.18 cm
relative body weight (% of initial) [1, 4]: 92.0±2.52%
Colon length Mean [1, 5]: 7.85 cm
relative body weight (% of initial) [1, 5]: 92.1±1.17%
Colon length Mean ([1]; day 13, 25 mg/kg qd by gavage): 7.28 cm
relative body weight (% of initial) ([1]; day 13, 25 mg/kg qd by gavage): 95.3±1.63%
Colon length Mean ([1]; day 13, 50 mg/kg qd by gavage): 8.27 cm
relative body weight (% of initial) ([1]; day 13, 50 mg/kg qd by gavage): 96.5± 1.62 %
Relative colon length (%) ([1]; day 13, 6.25 mg/kg qd by gavage, 6.25 mg/kg): 89.8### %
Relative colon length (%) ([1]; day 13, 6.25 mg/kg qd by gavage, listed as compound 23, 6.25 mg/kg): 89.79%
Relative colon length (%) ([1]; day 13, 12.5 mg/kg qd by gavage, 12.5 mg/kg): 98.1#### %
Relative colon length (%) ([1]; day 13, 12.5 mg/kg qd by gavage, listed as compound 23, 12.5 mg/kg): 98.1%
Relative colon length (%) ([1]; day 13, 25 mg/kg qd by gavage, 25 mg/kg): 90.9#### %
Relative colon length (%) ([1]; day 13, 25 mg/kg qd by gavage, listed as compound 23, 25 mg/kg): 90.9%
Relative colon length (%) ([1]; day 13, 50 mg/kg qd by gavage, 50 mg/kg): 103.4#### %
Relative colon length (%) ([1]; day 13, 50 mg/kg qd by gavage, listed as compound 23, 50 mg/kg): 103.3%
AUC(0-t) [2]: 5060 ng·h/mL
Cmax [2]: 1850 ng/mL
MRT inf [2]: 2.2 h
Tmax [2]: 2 h
half-life [2]: 159 min
